Entries after “also recorded” stand apart in the source; their conditions may differ.
What was measured:
[1] = test system: female rats; test: 7-day i.p. repeat dose screening toxicity study; type: in vivo, rat; conditions: female rats, 50 mg/kg/day i.p. for 7 consecutive days
Description: The compound of Formula (Ia) was evaluated in a 7-day repeat dose screening toxicity study in female rats. In order to maximize systemic exposure, rats were administered compound of Formula (Ia) i.p. at 50 mg/kg/day for 7 consecutive days, to obtain the results shown in FIG. 6. Clinical chemistry parameters were evaluated on Days 3 and 8. Histopathology was performed on select organs including the liver, kidney, spleen, and lung.

[2] = biological target: hTRPM8 (Homo sapiens, UniProt Q7Z2W7); test: Patch clamp selectivity, hTRPM8; type: cell-based; conditions: hTRPM8 vs TRPA1
Description: (§1) Data for TRPA1 inhibition and the selectivity of TRPA1 inhibition was obtained by this method for the compound of Formula (Ia) and included in Table 1 and Table 2. All currents were recorded in whole-cell configuration using EPC-9 and EPC-10 amplifiers and Patchmaster software (HEKA). […] The standard pipette solution consisted of 140 mM CsAsp, 10 mM EGTA, 10 mM HEPES, 2.27 mM MgCl2, 1.91 mM CaCl2, 4 mM MgATP, and 0.1-0.3 mM Na2GTP, with pH adjusted to 7.2 with CsOH. In addition, a solution containing 145 mM CsCl, 10 mM HEPES, 10 mM EGTA and 1 mM MgCl2 (pH 7.2 adjusted with CsOH) can be used. The standard bath solution contained 150 mM NaCl, 10 mM HEPES, 10 mM glucose, 4.5 mM KCl, 1 mM EGTA, 3 mM MgCl2, with pH adjusted to 7.4 with NaOH. In some instances, 2 mM CaCl2 was added in place of EGTA and the concentration of MgCl2 was reduced to 1 mM.
(§2) Data were collected either by continuous recordings at −60 mV or by applying voltage ramps from a holding potential of 0 mV every 4 s. […] Inward and outward currents were analyzed from the ramps at −80 and 80 mV, respectively. […]
(§3) Solutions were switched using a gravity-fed continuous focal perfusion system. […] Temperatures were confirmed using a thermistor (Warner Instruments, TA-29), with temperatures at the recorded cell estimated to be within +/−2° C. of those reported. […]

[3] = test system: formalin-induced pain behavior; test: Formalin-induced pain behavior in vivo rodent model; set-up: species or system rat; conditions: i.p. administration, in words
Text: The data shown in Tables 3a, 3b, and 3c and FIG. 2 were obtained by administering a pharmaceutical composition comprising the compound of Formula (Ia) to rodents in the formalin-induced pain duration at various doses according to Example 5. Specifically, the data in Tables 3a, 3b, and 3c and FIG. 2 were obtained by intraperitoneal (i.p.) administration of compositions containing different concentrations of the compound of Formula (Ia), a comparator composition containing recited amounts of the comparator compound (e.g., 150 mg/kg of the comparator compound of Formula (II) in Table 3a) and a control composition containing the vehicle (e.g., without the compound of Formula (Ia) or a comparator compound).
The compound of Formula (Ia) and the comparator compounds of Formula (II) and Formula (III) were tested in the formalin-induced pain test reported by Dubuisson et al., Pain 1977 December; 4(2):161-74 (incorporated herein by reference in its entirety). Dubuisson et al. (1977) describe a method for assessing pain and analgesia in rats and cats. Briefly, dilute formalin (50 μL of 3% formalin) is injected into the plantar surface of the hind paw. […] The individual responsible for counting the pain behaviors in a particular study is blinded to the treatment groups.
Rats were treated with the HCl salt of Compound (Ia) at various doses (3, 10, 30, and 50 mg/kg, IP) or with the vehicle (IP).

[4] = biological target: dTRPA1 (Canis lupus familiaris, UniProt A0A8I3Q1Q7); test: Whole-cell patch clamp inhibition of dTRPA1; type: cell-based, Dog; conditions: dTRPA1, 10 micromolar AITC activation; read-out: IC50 Inward current
Description: as §1, §2, §3

[5] = biological target: hERG (Homo sapiens, UniProt Q12809); test: Patch clamp selectivity, hERG; type: cell-based; conditions: hERG vs TRPA1
Description: as §1, §2, §3

[6] = biological target: T1, hTRPV3 (Homo sapiens, UniProt Q8NET8); test: Patch clamp selectivity, hTRPV3; type: cell-based; conditions: hTRPV3 vs TRPA1
T1 sequence (Q8NET8 1-790): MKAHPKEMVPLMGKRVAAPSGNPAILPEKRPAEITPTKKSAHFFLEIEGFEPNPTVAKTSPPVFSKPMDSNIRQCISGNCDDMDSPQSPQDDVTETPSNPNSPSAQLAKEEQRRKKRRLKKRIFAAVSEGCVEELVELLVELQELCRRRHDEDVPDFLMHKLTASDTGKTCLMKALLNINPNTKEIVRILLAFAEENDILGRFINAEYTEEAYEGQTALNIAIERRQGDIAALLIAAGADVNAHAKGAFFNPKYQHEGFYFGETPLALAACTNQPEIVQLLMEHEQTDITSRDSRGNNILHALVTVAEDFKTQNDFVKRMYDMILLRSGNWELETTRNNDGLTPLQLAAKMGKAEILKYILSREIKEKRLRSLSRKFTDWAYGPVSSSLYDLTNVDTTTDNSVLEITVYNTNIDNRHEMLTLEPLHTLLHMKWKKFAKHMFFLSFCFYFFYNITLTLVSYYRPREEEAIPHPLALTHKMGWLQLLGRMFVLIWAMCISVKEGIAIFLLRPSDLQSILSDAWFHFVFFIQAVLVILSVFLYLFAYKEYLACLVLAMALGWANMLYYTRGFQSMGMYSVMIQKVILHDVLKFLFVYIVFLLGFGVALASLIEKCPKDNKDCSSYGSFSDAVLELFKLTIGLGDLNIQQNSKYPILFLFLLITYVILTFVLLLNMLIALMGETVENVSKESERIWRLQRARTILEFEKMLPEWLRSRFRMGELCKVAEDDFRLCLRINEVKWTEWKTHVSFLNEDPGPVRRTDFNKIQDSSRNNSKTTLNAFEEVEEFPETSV
Description: as §1, §2, §3

Chain of hTRPM8 (Q7Z2W7 whole entry): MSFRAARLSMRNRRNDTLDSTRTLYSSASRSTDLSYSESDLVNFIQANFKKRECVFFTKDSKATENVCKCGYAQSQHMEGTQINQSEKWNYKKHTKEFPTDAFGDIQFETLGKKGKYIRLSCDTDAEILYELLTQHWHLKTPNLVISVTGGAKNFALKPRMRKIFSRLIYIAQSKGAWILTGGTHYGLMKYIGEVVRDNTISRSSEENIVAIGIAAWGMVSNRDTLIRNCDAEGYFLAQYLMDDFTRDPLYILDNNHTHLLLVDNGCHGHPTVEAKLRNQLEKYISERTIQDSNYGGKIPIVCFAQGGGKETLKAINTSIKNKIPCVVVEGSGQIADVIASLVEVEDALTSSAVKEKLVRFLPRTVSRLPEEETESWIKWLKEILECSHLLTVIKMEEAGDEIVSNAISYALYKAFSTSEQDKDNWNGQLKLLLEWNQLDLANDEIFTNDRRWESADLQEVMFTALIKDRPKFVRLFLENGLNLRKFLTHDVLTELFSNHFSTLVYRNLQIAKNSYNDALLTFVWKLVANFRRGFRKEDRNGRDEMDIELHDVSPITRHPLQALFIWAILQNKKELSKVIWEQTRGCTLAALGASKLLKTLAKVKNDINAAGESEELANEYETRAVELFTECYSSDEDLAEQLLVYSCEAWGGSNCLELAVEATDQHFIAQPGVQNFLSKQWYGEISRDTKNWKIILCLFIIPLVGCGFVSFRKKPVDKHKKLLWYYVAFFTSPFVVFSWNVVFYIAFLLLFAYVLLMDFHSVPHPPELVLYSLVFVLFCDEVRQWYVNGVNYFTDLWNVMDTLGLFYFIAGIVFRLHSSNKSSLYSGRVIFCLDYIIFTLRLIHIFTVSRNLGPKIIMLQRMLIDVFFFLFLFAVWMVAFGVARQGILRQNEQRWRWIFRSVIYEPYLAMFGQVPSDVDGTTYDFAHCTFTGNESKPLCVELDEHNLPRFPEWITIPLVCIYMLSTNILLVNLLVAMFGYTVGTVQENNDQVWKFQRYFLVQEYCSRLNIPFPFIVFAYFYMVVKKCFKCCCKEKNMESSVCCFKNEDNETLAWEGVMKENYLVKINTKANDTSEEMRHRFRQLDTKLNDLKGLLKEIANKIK
Chain of dTRPA1 (A0A8I3Q1Q7 1-1118): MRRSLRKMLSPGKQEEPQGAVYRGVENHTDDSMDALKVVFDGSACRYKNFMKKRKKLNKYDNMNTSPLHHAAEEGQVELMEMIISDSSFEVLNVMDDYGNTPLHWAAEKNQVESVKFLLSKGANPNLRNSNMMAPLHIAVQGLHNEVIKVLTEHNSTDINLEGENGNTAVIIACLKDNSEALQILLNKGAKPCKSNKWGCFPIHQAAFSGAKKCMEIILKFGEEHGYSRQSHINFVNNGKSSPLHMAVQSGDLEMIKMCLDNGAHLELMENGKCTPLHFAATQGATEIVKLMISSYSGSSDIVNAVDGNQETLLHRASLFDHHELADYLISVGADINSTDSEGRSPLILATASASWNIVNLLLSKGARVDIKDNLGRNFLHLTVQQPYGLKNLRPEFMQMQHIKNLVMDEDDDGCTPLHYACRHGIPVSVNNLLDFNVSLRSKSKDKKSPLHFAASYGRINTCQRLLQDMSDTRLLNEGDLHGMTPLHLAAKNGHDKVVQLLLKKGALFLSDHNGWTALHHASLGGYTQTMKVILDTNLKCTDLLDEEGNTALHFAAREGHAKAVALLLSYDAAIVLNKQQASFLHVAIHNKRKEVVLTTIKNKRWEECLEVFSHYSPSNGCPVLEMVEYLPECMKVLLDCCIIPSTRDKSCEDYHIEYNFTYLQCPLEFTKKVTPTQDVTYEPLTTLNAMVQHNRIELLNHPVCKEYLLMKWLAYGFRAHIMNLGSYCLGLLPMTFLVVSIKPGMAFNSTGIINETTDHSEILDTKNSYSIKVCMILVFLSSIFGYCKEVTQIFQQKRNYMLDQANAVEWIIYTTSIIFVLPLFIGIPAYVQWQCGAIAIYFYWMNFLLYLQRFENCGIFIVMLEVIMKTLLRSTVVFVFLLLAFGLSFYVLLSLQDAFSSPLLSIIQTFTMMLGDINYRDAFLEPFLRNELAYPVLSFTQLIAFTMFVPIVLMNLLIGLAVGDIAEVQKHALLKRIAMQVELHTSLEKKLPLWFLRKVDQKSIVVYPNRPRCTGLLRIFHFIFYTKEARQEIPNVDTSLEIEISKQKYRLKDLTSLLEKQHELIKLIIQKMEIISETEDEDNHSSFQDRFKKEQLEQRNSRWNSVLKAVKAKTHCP
Chain of hERG (Q12809 whole entry): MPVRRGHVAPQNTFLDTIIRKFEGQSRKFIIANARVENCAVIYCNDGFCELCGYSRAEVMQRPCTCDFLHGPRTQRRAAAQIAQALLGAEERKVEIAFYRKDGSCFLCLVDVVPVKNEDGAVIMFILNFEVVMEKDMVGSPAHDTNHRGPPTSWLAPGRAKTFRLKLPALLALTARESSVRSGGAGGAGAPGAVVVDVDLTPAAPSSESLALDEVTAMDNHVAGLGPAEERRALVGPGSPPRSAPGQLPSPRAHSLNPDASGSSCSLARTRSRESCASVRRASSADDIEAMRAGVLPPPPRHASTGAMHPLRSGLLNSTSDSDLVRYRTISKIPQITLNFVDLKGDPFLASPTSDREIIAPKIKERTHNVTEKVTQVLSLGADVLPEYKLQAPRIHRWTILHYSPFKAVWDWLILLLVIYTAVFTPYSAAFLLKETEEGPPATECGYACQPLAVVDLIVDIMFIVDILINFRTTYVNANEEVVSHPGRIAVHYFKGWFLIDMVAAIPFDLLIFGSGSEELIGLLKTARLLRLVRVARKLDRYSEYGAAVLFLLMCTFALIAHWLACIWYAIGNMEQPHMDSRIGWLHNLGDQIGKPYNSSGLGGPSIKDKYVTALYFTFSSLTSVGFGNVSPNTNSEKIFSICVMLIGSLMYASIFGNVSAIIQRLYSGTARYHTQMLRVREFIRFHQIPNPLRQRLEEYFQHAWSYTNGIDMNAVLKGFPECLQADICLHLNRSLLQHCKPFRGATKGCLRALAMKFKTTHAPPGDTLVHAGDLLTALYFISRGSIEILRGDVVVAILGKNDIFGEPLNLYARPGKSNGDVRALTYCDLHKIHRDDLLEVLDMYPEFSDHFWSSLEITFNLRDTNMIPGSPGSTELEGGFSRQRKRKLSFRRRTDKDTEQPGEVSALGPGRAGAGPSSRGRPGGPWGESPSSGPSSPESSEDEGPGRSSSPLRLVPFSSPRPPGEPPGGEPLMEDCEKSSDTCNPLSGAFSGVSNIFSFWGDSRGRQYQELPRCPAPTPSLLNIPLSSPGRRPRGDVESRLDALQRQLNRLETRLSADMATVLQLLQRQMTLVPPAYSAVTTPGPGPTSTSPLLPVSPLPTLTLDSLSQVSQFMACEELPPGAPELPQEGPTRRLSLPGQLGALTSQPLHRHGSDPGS

Fold Selectivity Compared to TRPA1 [2]: ~200 Fold
IC50 [4]: ~100 nM
Fold Selectivity Compared to TRPA1 [6]: >300 Fold
SMILES: C[C@H]1CCCN1c1ncc(-c2cccc(NC(=O)Cn3cnc4c3c(=O)n(C)c(=O)n4C)n2)cn1 [Formula (Ia)]
histopathology of liver, kidney, spleen, lung ([1]; 50 mg/kg/day): No histopathological findings in the liver, kidney, spleen, or lung; also recorded: no adverse effects
clinical signs, body weight, clinical chemistry parameters ([1]; Days 3 and 8): no adverse clinical signs, changes in body weight, or changes in clinical chemistry parameters were noted
duration of pain behavior compared with vehicle [3]: shorter durations of pain behavior than those treated with the vehicle
Fold Selectivity Compared to TRPA1 [5]: >100 Fold
